Reference: ChEMBL document CHEMBL1130791, “Novel HIV-protease inhibitors containing beta-hydroxyether and -thioether dipeptide isostere surrogates: modification of the P3 ligand” (Bioorg Med Chem Lett, 1998)
Calls of active or inactive are those of the source. No cut-off for these calls is given here.

Tested on: CCRF-CEM
Test: Compound was evaluated for antiviral activity against the HTLV-III strain of HIV-1 in CEM cell lines; NA means not active
Assay type: functional, cell-based
Conditions: Homo sapiens

Row | SMILES | ID50
1 | CC(C)(C)NC(=O)c1ccccc1OC[C@@H](O)[C@H](Cc1ccccc1)NC(=O)[C@H](CC(N)=O)NC(=O)c1nc2ccccc2nc1O | inactive
2 | CC(C)(C)NC(=O)c1ccccc1OC[C@H](O)[C@H](Cc1ccccc1)NC(=O)[C@H](CC(N)=O)NS(=O)(=O)c1ccc2ccccc2c1 | inactive
3 | CC(C)(C)NC(=O)c1ccccc1OC[C@@H](O)[C@H](Cc1ccccc1)NC(=O)[C@H](CC(N)=O)NS(=O)(=O)c1ccc2ccccc2c1 | inactive

Biological target: Human immunodeficiency virus type 1 protease (Human immunodeficiency virus 1) (UniProt Q72874)
Test: Antiviral activity against the HTLV-III strain of HIV-1 in CEM cell lines
Assay type: functional, cell-based
Conditions: CCRF-CEM

Row | SMILES | ID50 [nM]
4 | CC(C)(C)NC(=O)c1ccccc1OC[C@H](O)[C@H](Cc1ccccc1)NC(=O)[C@H](CC(N)=O)NC(=O)c1cnc2ccccc2n1 | 610
5 | CC(C)(C)NC(=O)c1ccccc1OC[C@@H](O)[C@H](Cc1ccccc1)NC(=O)[C@H](CC(N)=O)NC(=O)c1cnc2ccccc2n1 | 630
6 | CC(C)(C)NC(=O)c1ccccc1OC[C@@H](O)[C@H](Cc1ccccc1)NC(=O)[C@H](CC(N)=O)NC(=O)c1ccc2c(c1)S(=O)(=O)c1ccccc1C2=O | 550
7 | CC(C)(C)NC(=O)c1ccccc1OC[C@@H](O)[C@H](Cc1ccccc1)NC(=O)[C@H](CC(N)=O)NC(=O)c1cnnc2ccccc12 | 9300
8 | CC(C)(C)NC(=O)c1ccccc1OC[C@H](O)[C@H](Cc1ccccc1)NC(=O)[C@H](CC(N)=O)NC(=O)c1nc2ccccc2nc1O | 10600
9 | CC(C)(C)NC(=O)c1ccccc1SC[C@H](O)[C@H](Cc1ccccc1)NC(=O)[C@H](CC(N)=O)NC(=O)c1ccc2ccccc2c1 | 13400
10 | CC(C)(C)NC(=O)c1ccccc1OC[C@@H](O)[C@H](Cc1ccccc1)NC(=O)[C@H](CC(N)=O)NC(=O)c1ccc2c(c1)C(=O)c1ccccc1C2=O | 330
11 | CC(C)(C)NC(=O)c1ccccc1OC[C@H](O)[C@H](Cc1ccccc1)NC(=O)[C@H](CC(N)=O)NC(=O)c1ccc2c(c1)C(=O)c1ccccc1C2=O | 2300
12 | CC(C)(C)NC(=O)c1ccccc1OC[C@H](O)[C@H](Cc1ccccc1)NC(=O)[C@H](CC(N)=O)NC(=O)c1cc(O)c2ccccc2n1 | 11200
13 | CC(C)(C)NC(=O)c1c(OC[C@@H](O)[C@H](Cc2ccccc2)NC(=O)[C@H](CC(N)=O)NC(=O)c2ccc3c(c2)S(=O)(=O)c2ccccc2C3=O)ccc2ccccc12 | 100
14 | CC(C)(C)NC(=O)c1ccccc1OC[C@H](O)[C@H](Cc1ccccc1)NC(=O)[C@H](CC(N)=O)NC(=O)c1cnnc2ccccc12 | 13400
15 | CC(C)(C)NC(=O)c1c(OC[C@@H](O)[C@H](Cc2ccccc2)NC(=O)[C@H](CC(N)=O)NC(=O)c2ccc3c(c2)C(=O)c2ccccc2C3=O)ccc2ccccc12 | 160

Biological target: Human immunodeficiency virus type 1 protease (Human immunodeficiency virus 1) (UniProt Q72874)
Test: Inhibitory activity against HIV-1 protease using scintillation proximity assay (SPA assay) at a concentration of 500 nM
Conditions: not given

Row | SMILES | inhibition [%]
16 | CC(C)(C)NC(=O)c1ccccc1OC[C@H](O)[C@H](Cc1ccccc1)NC(=O)[C@H](CC(N)=O)NC(=O)c1nc2ccccc2nc1O | 35
17 | CC(C)(C)NC(=O)c1ccccc1OC[C@@H](O)[C@H](Cc1ccccc1)NC(=O)[C@H](CC(N)=O)NC(=O)c1nc2ccccc2nc1O | 36
18 | CC(C)(C)NC(=O)c1ccccc1OC[C@@H](O)[C@H](Cc1ccccc1)NC(=O)[C@H](CC(N)=O)NS(=O)(=O)c1ccc2ccccc2c1 | 42

Biological target: T1, Human immunodeficiency virus type 1 protease (Human immunodeficiency virus 1, UniProt Q72874)
Test: Inhibitory activity against HIV-1 protease using scintillation proximity assay (SPA assay)
Conditions: not given

Row | SMILES | IC50 [nM]
19 | CC(C)(C)NC(=O)c1ccccc1OC[C@H](O)[C@H](Cc1ccccc1)NC(=O)[C@H](CC(N)=O)NC(=O)c1cnc2ccccc2n1 | 100
20 | CC(C)(C)NC(=O)c1ccccc1NC[C@@H](O)[C@H](Cc1ccccc1)NC(=O)[C@H](CC(N)=O)NC(=O)c1ccc2ccccc2n1 | 94
21 | CC(C)(C)NC(=O)c1ccccc1OC[C@@H](O)[C@H](Cc1ccccc1)NC(=O)[C@H](CC(N)=O)NC(=O)c1cnc2ccccc2n1 | 63
22 | CC(C)(C)NC(=O)c1ccccc1SC[C@@H](O)[C@H](Cc1ccccc1)NC(=O)[C@H](CC(N)=O)NC(=O)c1ccc2ccccc2n1 | 90
23 | CC(C)(C)NC(=O)c1ccccc1OC[C@@H](O)[C@H](Cc1ccccc1)NC(=O)[C@H](CC(N)=O)NC(=O)c1ccc2c(c1)S(=O)(=O)c1ccccc1C2=O | 44
24 | CC(C)(C)NC(=O)c1ccccc1OC[C@@H](O)[C@H](Cc1ccccc1)NC(=O)[C@H](CC(N)=O)NC(=O)c1cnnc2ccccc12 | 130
25 | CC(C)(C)NC(=O)c1ccccc1SC[C@H](O)[C@H](Cc1ccccc1)NC(=O)[C@H](CC(N)=O)NC(=O)c1ccc2ccccc2c1 | 390
26 | CC(C)(C)NC(=O)c1ccccc1OC[C@@H](O)[C@H](Cc1ccccc1)NC(=O)[C@H](CC(N)=O)NC(=O)c1ccc2c(c1)C(=O)c1ccccc1C2=O | 41
27 | CC(C)(C)NC(=O)c1ccccc1OC[C@H](O)[C@H](Cc1ccccc1)NC(=O)[C@H](CC(N)=O)NC(=O)c1ccc2c(c1)C(=O)c1ccccc1C2=O | 90
28 | CC(C)(C)NC(=O)c1ccccc1OC[C@H](O)[C@H](Cc1ccccc1)NC(=O)[C@H](CC(N)=O)NC(=O)c1cc(O)c2ccccc2n1 | 410
29 | CC(C)(C)NC(=O)c1c(OC[C@@H](O)[C@H](Cc2ccccc2)NC(=O)[C@H](CC(N)=O)NC(=O)c2ccc3c(c2)S(=O)(=O)c2ccccc2C3=O)ccc2ccccc12 | 60
30 | CC(C)(C)NC(=O)c1ccccc1OC[C@@H](O)[C@H](Cc1ccccc1)NC(=O)[C@H](CC(N)=O)NC(=O)c1ccc2ccccc2n1 | 45
31 | CC(C)(C)NC(=O)c1ccccc1OC[C@H](O)[C@H](Cc1ccccc1)NC(=O)[C@H](CC(N)=O)NC(=O)c1cnnc2ccccc12 | 500
32 | CC(C)(C)NC(=O)c1c(OC[C@@H](O)[C@H](Cc2ccccc2)NC(=O)[C@H](CC(N)=O)NC(=O)c2ccc3c(c2)C(=O)c2ccccc2C3=O)ccc2ccccc12 | 62

Biological target: T1, Human immunodeficiency virus type 1 protease
Test: Inhibitory activity against HIV-1 protease using scintillation proximity assay (SPA assay); NA means not active
Conditions: not given

Row | SMILES | IC50
33 | CC(C)(C)NC(=O)c1ccccc1SC[C@H](O)[C@H](Cc1ccccc1)NC(=O)[C@H](CC(N)=O)NC(=O)c1ccccn1 | Not Active
